Source: publication PMC8777717, “Thiolation of Myco-Synthesized Fe3O4-NPs: A Novel Promising Tool for Penicillium expansium Laccase Immobilization to Decolorize Textile Dyes and as an Application for Anticancer Agent” (Journal of Fungi, 2022)

Experiments:
P. expansium laccase [1] = tested on: T1, P. expansium laccase; assay: spectrophotometric oxidation assay at […] nm, Lineweaver-Burk; assay type: biochemical, Penicillium expansum; conditions: free enzyme; 0.2-0.8 mM substrate; 0.1 M sodium acetate pH 5.0, 40 °C
T1 construct: gene EC 1.10.3.2; native enzyme purified from culture filtrate (ABTS-supplemented medium; ammonium sulfate, DEAE-cellulose, Sephadex G-200); single SDS-PAGE band ~60 kDa; free (soluble) enzyme

P. expansium laccase [2] = tested on: T1, P. expansium laccase; assay: Lineweaver-Burk; assay type: biochemical, Penicillium expansum; conditions: free enzyme; 0.2-0.8 mM substrate; 0.1 M sodium acetate pH 5.0, 40 °C
Text: Lineweaver-Burk on P. expansium laccase

CCn1c(=NN=c2sc3cc(S(=O)(=O)O)ccc3n2CC)sc2cc(S(=O)(=O)O)ccc21 [ABTS]
Km (P. expansium laccase [1]): 4150 µM

Oc1ccccc1O [catechol]
Km (P. expansium laccase [2]): 1310 µM
